Earlier results as cited in patent publication US7641924B2, “Nutritional composition for controlling blood sugar level” (Meiji Dairies Corporation, priority 2001, dated 2010).

What was measured:
[1] = target: isomaltase in the small intestine (Homo sapiens, UniProt P14410)
[2] = in vivo

Chain of isomaltase in the small intestine (P14410 whole entry): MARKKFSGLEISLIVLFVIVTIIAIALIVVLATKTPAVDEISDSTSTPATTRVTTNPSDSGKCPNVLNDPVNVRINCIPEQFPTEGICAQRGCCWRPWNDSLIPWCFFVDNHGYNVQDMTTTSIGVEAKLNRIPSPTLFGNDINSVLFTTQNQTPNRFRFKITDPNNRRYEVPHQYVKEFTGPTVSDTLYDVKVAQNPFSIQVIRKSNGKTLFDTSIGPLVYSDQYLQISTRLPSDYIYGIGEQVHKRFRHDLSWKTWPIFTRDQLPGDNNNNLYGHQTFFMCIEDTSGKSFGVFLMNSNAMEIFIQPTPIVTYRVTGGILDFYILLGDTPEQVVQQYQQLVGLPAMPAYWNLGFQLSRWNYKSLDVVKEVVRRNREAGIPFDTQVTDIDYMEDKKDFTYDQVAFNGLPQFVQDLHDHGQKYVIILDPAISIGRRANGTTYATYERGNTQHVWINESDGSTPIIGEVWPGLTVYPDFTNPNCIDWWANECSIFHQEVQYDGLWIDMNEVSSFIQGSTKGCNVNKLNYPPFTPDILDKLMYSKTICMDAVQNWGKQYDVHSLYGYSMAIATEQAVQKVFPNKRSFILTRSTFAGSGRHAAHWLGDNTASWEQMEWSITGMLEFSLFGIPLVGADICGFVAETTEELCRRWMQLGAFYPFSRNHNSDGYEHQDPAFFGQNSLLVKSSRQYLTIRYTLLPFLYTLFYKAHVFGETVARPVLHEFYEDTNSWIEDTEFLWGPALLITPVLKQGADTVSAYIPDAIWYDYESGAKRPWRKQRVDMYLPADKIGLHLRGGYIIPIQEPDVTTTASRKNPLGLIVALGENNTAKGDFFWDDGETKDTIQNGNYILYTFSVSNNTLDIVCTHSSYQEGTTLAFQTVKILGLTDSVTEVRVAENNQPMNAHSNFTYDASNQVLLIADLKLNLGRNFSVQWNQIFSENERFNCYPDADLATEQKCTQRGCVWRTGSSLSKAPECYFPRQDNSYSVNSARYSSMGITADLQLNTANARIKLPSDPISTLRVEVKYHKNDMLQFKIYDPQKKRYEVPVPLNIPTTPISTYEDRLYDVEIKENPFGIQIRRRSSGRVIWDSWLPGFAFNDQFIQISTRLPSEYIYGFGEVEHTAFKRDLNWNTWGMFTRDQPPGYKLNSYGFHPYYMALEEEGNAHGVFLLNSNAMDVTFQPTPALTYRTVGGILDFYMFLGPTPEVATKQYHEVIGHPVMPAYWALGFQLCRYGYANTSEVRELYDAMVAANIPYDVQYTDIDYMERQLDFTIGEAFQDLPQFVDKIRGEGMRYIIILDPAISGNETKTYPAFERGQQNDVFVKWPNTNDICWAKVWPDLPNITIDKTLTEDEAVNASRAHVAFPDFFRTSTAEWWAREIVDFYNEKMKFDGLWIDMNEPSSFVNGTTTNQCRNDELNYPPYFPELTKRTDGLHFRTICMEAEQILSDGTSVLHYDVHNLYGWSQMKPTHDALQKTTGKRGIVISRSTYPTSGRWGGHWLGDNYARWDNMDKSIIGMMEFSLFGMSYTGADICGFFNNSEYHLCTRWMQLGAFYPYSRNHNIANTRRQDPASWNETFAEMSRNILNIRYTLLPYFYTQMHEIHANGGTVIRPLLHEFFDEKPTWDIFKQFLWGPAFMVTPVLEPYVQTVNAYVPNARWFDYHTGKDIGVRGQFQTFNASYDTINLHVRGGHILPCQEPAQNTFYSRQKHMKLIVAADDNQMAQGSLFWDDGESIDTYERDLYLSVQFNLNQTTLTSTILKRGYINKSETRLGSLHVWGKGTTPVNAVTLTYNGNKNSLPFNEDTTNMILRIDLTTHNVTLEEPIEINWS

| Compound | hydrolysis rate relative to that of sucrose [1] | hydrolysis rate relative to that of palatinose ([1]; small intestine) | blood glucose level after intake [2] | insulin level after intake [2] |
| --- | --- | --- | --- | --- |
| Trehalulose | one third | about 2 times | – | – |
| OC[C@H]1O[C@H](OC[C@H]2OC(O)(CO)[C@@H](O)[C@@H]2O)[C@H](O)[C@@H](O)[C@@H]1O (some centres unmarked) [palatinose, Palatinose] | one fifth | – | maintained at predetermined levels over many hours | maintained at predetermined levels over many hours |
